Columns and labels:
[1] = DTNB assay for free sulfhydryls; details: 5 mM XB05; 0.25 mM Cys or GSH, pH 8, 30 min, 37° C.
Description: FIG. 12: XB05 is Weakly Reactive with Thiols In Vitro: 0.25 mM Cysteine (Cys, top panel) or glutathione (GSH, bottom panel) were incubated with XB05, diethyl maleate (DEM), or maleimide at the indicated concentrations, or with an equivalent amount of vehicle (DMSO), for 30 min at 37° C. 5,5′-Dithiobis-2-nitrobenzoic acid (DTNB) assays were conducted as described in Methods. Absorbance for triplicate wells was determined at 412 nm. Points represent the mean and standard deviation for triplicate wells. Data shown are representative of two independent experiments.
Dithiobis-2-nitrobenzoic Acid (DTNB) Assay for Free Sulfhydryls. For each experiment, a 20× working solution of DTNB (2 mM DTNB, 50 mM sodium acetate in 100 mM Tris-HCl, pH 8.0) and 2× solutions of cysteine and GSH (0.5 mM in 100 mM Tris-HCl, pH 8.0) were freshly prepared. 10 mM stock solutions of XB05, diethyl maleate and maleimide were prepared in 100% DMSO, and subsequently serially diluted to 2× working solutions in 100 mM Tris-HCl, pH 8.0. 100 μl each of thiol compounds (final concentration 0.25 mM) and thiol-reactive compounds (final concentrations 0.05-5 mM) or vehicle control (DMSO) were added in duplicate to a 96-well plate and allowed to incubate at 37° C. for 30 minutes. […] Absorbance was read on a Biotek HT Synergy Plate reader (Winooski, Vt.) at 412 nm.

[2] = test system: A549 cells; assay: Western blot for PARP-1 and caspase-3 cleavage; format: cell-based, human; details: A549, 2 μM XB05
Description: (§1) FIG. 3: XB05 Induces Apoptotic and Nonapoptotic Cell Death in Malignant Cell Lines. (A) Trypan blue exclusion assay for three human cell lines following treatment with XB05 for 72 h at the concentrations indicated. Data points represent the mean+/−SEM for three independent experiments. (B) Representative phase contrast microscopy images of cells treated with vehicle (72 h), XB05 (72 h with 1 μM for U937 and Hs27, or 2 μM for A549), or 6 μg/mL camptothecin (U937 for 6 h, A549 and Hs27 for 48 h). Cells undergoing apoptotic (black arrows) or non-apoptotic (white arrows) cell death are indicated. (C) Whole cell extracts from cells treated with vehicle, camptothecin, or XB05, as described in part B were western blotted for biochemical markers of apoptosis and GAPDH (loading control). […]
(§2) Western Blotting. […] Proteins were detected using the following primary antibody concentrations: PARP-1 (1:1000), cleaved caspase-3 (1:1000), γ-H2AX (Ser139) ([…]), phospho-eIF2α (Ser51) (1:1000), eIF2α (1:1000), Bip (1:1000), Nrf2 (1:1000), Ku-70 (1:1000) and GAPDH (1:1000). […] Where indicated, band intensities were quantified using the UN-SCAN-IT Gel digitizing software (Silk Scientific, Orem Utah) and normalized to vehicle control.

[3] = test system: U937 cells; assay: Western blot for PARP-1 and caspase-3 cleavage; format: cell-based, human; details: U937, 1 μM XB05
Description: as §1, §2

[4] = test system: A549 cells; assay: Trypan blue exclusion assay; format: cell-based, human; details: A549, 2 μM, 72 h
Description: (§3) FIG. 3: XB05 Induces Apoptotic and Nonapoptotic Cell Death in Malignant Cell Lines. (A) Trypan blue exclusion assay for three human cell lines following treatment with XB05 for 72 h at the concentrations indicated. Data points represent the mean+/−SEM for three independent experiments. (B) Representative phase contrast microscopy images of cells treated with vehicle (72 h), XB05 (72 h with 1 μM for U937 and Hs27, or 2 μM for A549), or 6 μg/mL camptothecin (U937 for 6 h, A549 and Hs27 for 48 h). Cells undergoing apoptotic (black arrows) or non-apoptotic (white arrows) cell death are indicated. (C) Whole cell extracts from cells treated with vehicle, camptothecin, or XB05, as described in part B were western blotted for biochemical markers of apoptosis and GAPDH (loading control). Apoptosis is indicated by cleavage of full-length PARP-1 (116 kDa) to an 89 kDa fragment, and by appearance of bands (17 kDa, 19 kDa) recognized by an antibody specific to cleaved (activated) forms of caspase-3. (D) Flow cytometric analysis of annexin V-FITC/propidium Iodide (PI) staining for malignant cells treated with vehicle, camptothecin or XB05 as described in part B, in the presence or absence of the pan-caspase inhibitor Z-VAD-fmk (100 μM).
(§4) After 72 h, cells were trypsinized (in the case of adherent cells), stained with trypan blue solution (0.4%) (BioRad, Hercules Calif.) and cell number and percent viability determined on a TC10 automated cell counter (BioRad) using triplicate measurements for each sample. Phase contrast microscopy images were obtained on an EVOSfI digital inverted microscope (Advanced Microscopy Group, Bothell, Wash.).

[5] = test system: Hs27 cells; assay: Trypan blue exclusion assay; format: cell-based, human; details: Hs27, 72 h
Description: as §3, §4

[6] = test system: U937 cells; assay: Trypan blue exclusion assay; format: cell-based, human; details: U937, 1 μM, 72 h
Description: as §3, §4

Compound: CCCCCC(O)C#CC(F)(F)Br (stereo not drawn) [XB05]
- depletion of free thiols [1]: 40-50%
- time at which PARP-1 and caspase-3 cleavage were apparent [2]: 48 h
- time at which PARP-1 and caspase-3 cleavage were apparent [3]: ≤ 24 h
- cell death (trypan blue exclusion) [4]: modest cell death
- cell death (trypan blue exclusion) [5]: lowest levels of cell death
- cell death (trypan blue exclusion) [6]: robust cell death
